Test results taken from patent US20030232087A1, “Bioactive agent release coating with aromatic poly(meth)acrylates” (priority 2002, published 2003).

Assays:
[1] = Bioactive Agent Release Assay, β-estradiol from coated stents; type: physicochemical; details: pEVA/pBMA 14/86% (w/w), coated at 0, 20, 30 or 40% relative humidity at 22° C.; PBS, 37° C.; FIG. 3
Experimental: A polymer coating solution containing poly(ethylene-co-vinylacetate) with a vinyl acetate concentration of 33% (w/w) and poly(n-butyl methacrylate) was prepared in 5 tetrahydrofuran at a polymer ratio of 14/86% (w/w), respectively. β-estradiol was added to the polymer coating solution after dissolution of the polymer in order to provide a coating composition of Applicant's above-captioned copending application in the form a one part system The bioactive agent/polymer ratio of the β-estradiol containing polymer solution was 30/70% (w/w) at a concentration of 10 mg/ml.
Eighteen-millimeter long, electropolished stainless steel stents with a 2 mm outer diameter were fabricated (Laserage Technology Corporation, Waukegan Ill.). […]
(§1) A suitable Bioactive Agent Release Assay, as described herein, can be used to determine the extent and rate of bioactive agent release under physiological conditions. In general it is desirable that less that 50% of the total quantity of the bioactive agent be released in the first 24 hours. It is frequently desirable for quantities of bioactive agent to be released for a duration of at least 30 days.
Except as otherwise provided herein, each coated stent was placed in an amber vial with 1.6 mls of PBS. […] The concentration of β-estradiol in each PBS sample was determined using UV spectroscopy.

[2] = Bioactive Agent Release Assay, dextran-TRITC from coated discs with polymer topcoat; type: physicochemical; details: pEVA (33% vinyl acetate)/pBMA topcoat coated at 48% relative humidity compared with 10% relative humidity; PBS, 37° C.; FIG. 2
Experimental: Two solutions were prepared in order to provide a coating composition of Applicant's copending application in the form of a two part system. The first solution was an aqueous solution containing the bioactive agent, dextran-TRITC, at a concentration of 15 mg/ml. The second solution contained poly(ethylene-co-vinylacetate) with a vinyl acetate concentration of 33% (w/w) and poly(n-butyl methacrylate), with approximate weight average molecular weight of 337 kilodaltons. The poly(n-butyl methacrylate) and poly(ethylene-co-vinylacetate) were purified by extraction with organic solvents to remove impurities, e.g., monomer residues. The polymers of the second solution were dissolved in tetrahydrofuran at a concentration of 10 mg/ml. […]
as §1, with “as describe” for “as described”, “less than” for “less that”
Except as otherwise provided herein, each coated disc was placed in an amber vial with 4 mls of PBS. […] The concentration of bioactive agent in each PBS sample was determined using UV spectroscopy. […]

Compound	β-estradiol rate of release from coating [1]	release rate of bioactive agent from composite coating [2]
C[C@]12CC[C@@H]3c4ccc(O)cc4CC[C@H]3[C@@H]1CC[C@@H]2O [β-estradiol]	different humidity level conditions can be used to control the β-estradiol rate of release	–
tetramethylrhodamine isothiocyanate-Dextran [dextran-TRITC]	–	faster rate
